The text below walks through data of ChEMBL document CHEMBL5608205, “Design, synthesis and biological evaluation of novel SIRT3 inhibitors targeting both NAD+ and substrate binding sites for the treatment of acute myeloid leukemia” (Eur J Med Chem, 2024).

SMILES strings stand for the structures.

Data set [1] addresses T1, NAD-dependent protein deacetylase sirtuin-3, mitochondrial (Homo sapiens, UniProt Q9NTG7).
T1 sequence (Q9NTG7 whole entry): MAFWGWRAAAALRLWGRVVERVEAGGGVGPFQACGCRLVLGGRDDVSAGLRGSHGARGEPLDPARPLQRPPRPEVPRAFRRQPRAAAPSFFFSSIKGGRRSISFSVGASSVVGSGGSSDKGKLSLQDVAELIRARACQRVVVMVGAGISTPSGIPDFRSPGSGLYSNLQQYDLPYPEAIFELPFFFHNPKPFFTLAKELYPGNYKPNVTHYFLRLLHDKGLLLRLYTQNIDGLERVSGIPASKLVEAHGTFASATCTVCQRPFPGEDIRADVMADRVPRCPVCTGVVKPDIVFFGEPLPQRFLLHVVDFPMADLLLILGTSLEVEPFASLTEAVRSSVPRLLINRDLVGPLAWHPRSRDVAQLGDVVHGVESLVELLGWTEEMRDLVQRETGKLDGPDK
Briefly: Inhibition of wild type C-terminal human SIRT3 (118 to […] residues) expressed in Escherichia coli strain BL21DE3 Rosetta2 using Fluor de lys as substrate incubated for 30 mins by fluorescence based analysis.

Data set [2] has as its system MOLM-13. Nature of the data set: cells. As to conditions: Homo sapiens, MOLM-13, 24 h.
Data set [3] concerns MV4-11. Nature of the data set: cells. As to conditions: Homo sapiens, MV4-11, 24 h.
In data set [4] the test system is HL-60. Briefly: cells. As to conditions: Homo sapiens, HL-60, 24 h.
The nature of data set [5]: Toxicity in nude mouse assessed as effect on body weight at 5 mg/kg, ip administered daily for upto 14 days. It is filed as organism-based. As to conditions: in vivo, 336 h, time < 14 day.
The subject of data set [6] is MV4-11. Briefly: Induction of apoptosis in human MV4-11 cells assessed as viable cells at […] incubated for 24 hrs by annexin V/FITC and Propidium Iodide staining based flow cytometry analysis (reference value: 95.4%). It is filed as functional. As to conditions: dose 2.5 µM, read-out: Activity. Background: Flow cytometry measures light scatter and fluorescence of single cells or particles in a stream.

Data set [7] can be described thus: Toxicity in nude mouse assessed as effect on kidney at 5 mg/kg, ip administered daily for upto 14 days. It is filed as organism-based. As to conditions: in vivo, 336 h, time < 14 day.
In data set [8] the test system is MV4-11. Briefly: Induction of apoptosis in human MV4-11 cells assessed as viable cells at 10 uM incubated for 24 hrs by annexin V/FITC and Propidium Iodide staining based flow cytometry analysis (reference value: 95.4%). It is filed as functional. As to conditions: read-out: Activity.
The subject of data set [9] is HL-60. Briefly: Induction of apoptosis in human HL-60 cells assessed as viable cells at […] incubated for 24 hrs by annexin V/FITC and Propidium Iodide staining based flow cytometry analysis (reference value: 98.9%). It is filed as functional. As to conditions: dose 2.5 µM, read-out: Activity.
Data set [10] relates to MOLM-13. Briefly: Induction of apoptosis in human MOLM-13 cells assessed as viable cells at 5 uM incubated for 24 hrs by annexin V/FITC and Propidium Iodide staining based flow cytometry analysis (reference value: 98.1%). It is filed as functional. As to conditions: read-out: Activity.
Data set [11] concerns HL-60. Nature of the data set: Induction of apoptosis in human HL-60 cells assessed as viable cells at 5 uM incubated for 24 hrs by annexin V/FITC and Propidium Iodide staining based flow cytometry analysis (reference value: 98.9%). It is filed as functional. As to conditions: read-out: Activity.
A short description of data set [12]: Toxicity in nude mouse assessed as effect on liver at 5 mg/kg, ip administered daily for upto 14 days. As to conditions: in vivo, 336 h, time < 14 day. It is filed as organism-based.
Data set [13] has as its system MOLM-13. Nature of the data set: Induction of apoptosis in human MOLM-13 cells assessed as viable cells at […] incubated for 24 hrs by annexin V/FITC and Propidium Iodide staining based flow cytometry analysis (reference value: 98.1%). It is filed as functional. As to conditions: dose 2.5 µM, read-out: Activity.
Data set [14] relates to MOLM-13. Nature of the data set: Induction of apoptosis in human MOLM-13 cells assessed as viable cells at 10 uM incubated for 24 hrs by annexin V/FITC and Propidium Iodide staining based flow cytometry analysis (reference value: 98.1%). It is filed as functional. As to conditions: read-out: Activity.
Data set [15] in a line: Toxicity in nude mouse assessed as effect on brain at 5 mg/kg, ip administered daily for upto 14 days. It is filed as organism-based. As to conditions: in vivo, 336 h, time < 14 day.
For data set [16], the target named is T2, NAD-dependent protein deacetylase sirtuin-2 (Homo sapiens, UniProt Q8IXJ6).
T2 sequence (Q8IXJ6 whole entry): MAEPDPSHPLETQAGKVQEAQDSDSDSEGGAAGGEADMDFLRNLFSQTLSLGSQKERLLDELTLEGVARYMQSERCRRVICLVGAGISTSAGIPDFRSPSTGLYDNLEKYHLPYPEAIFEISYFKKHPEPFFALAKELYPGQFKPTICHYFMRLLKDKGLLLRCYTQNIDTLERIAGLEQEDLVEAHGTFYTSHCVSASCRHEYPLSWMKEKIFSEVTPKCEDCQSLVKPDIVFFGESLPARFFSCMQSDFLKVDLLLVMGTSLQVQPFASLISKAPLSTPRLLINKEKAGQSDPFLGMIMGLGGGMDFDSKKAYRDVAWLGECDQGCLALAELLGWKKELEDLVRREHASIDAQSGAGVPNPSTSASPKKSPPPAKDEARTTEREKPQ
Briefly: Inhibition of recombinant human SIRT2 using Fluor de lys as substrate incubated for 30 mins by fluorescence based analysis.

Data set [17] has as its system MV4-11. Briefly: Induction of apoptosis in human MV4-11 cells assessed as viable cells at 5 uM incubated for 24 hrs by annexin V/FITC and Propidium Iodide staining based flow cytometry analysis (reference value: 95.4%). It is filed as functional. As to conditions: read-out: Activity.
Data set [18] can be described thus: Toxicity in nude mouse assessed as effect on spleen at 5 mg/kg, ip administered daily for upto 14 days. As to conditions: in vivo, 336 h, time < 14 day. It is filed as organism-based.
Data set [19] can be described thus: Toxicity in nude mouse assessed as effect on lung at 5 mg/kg, ip administered daily for upto 14 days. It is filed as organism-based. As to conditions: in vivo, 336 h, time < 14 day.
The subject of data set [20] is HL-60. Briefly: Induction of apoptosis in human HL-60 cells assessed as viable cells at 10 uM incubated for 24 hrs by annexin V/FITC and Propidium Iodide staining based flow cytometry analysis (reference value: 98.9%). As to conditions: read-out: Activity. It is filed as functional.
Data set [21] is described as follows: Toxicity in nude mouse assessed as effect on heart at 5 mg/kg, ip administered daily for upto 14 days. It is filed as organism-based. As to conditions: in vivo, 336 h, time < 14 day.
The target in data set [22] is T2, NAD-dependent protein deacetylase sirtuin-2. Nature of the data set: Inhibition of SIRT2 (unknown origin).
Data set [23] has as its target T1, NAD-dependent protein deacetylase sirtuin-3, mitochondrial. Briefly: Inhibition of recombinant human SIRT3 using Fluor de lys as substrate incubated for 30 mins by fluorescence based analysis.

In general, IC50 refers to the point on the concentration scale where inhibition reaches its midpoint. As to `Oc1cc(O)cc(/C=C/c2ccc(Br)cc2)c1`, it took 143 µM to reach half-maximal inhibition in [1] (IC50).
As for `c1cncc(-c2cnn[nH]2)c1`, the concentration for half-maximal inhibition (IC50) in the data set with MOLM-13 [2] was 12.6 µM; in the data set on MV4-11 [3] it was 27.8 µM; in the data set on HL-60 [4], over 50 µM.
The corresponding values for `C#Cc1cccc(NC(=O)N2C[C@H]3C[C@@H](C2)N3c2ncnc3cc(C(N)=O)sc23)c1` are 33.2 µM, 28.7 µM and 38.2 µM.
For the molecule `NC(=O)c1cc2ncnc(N3[C@@H]4CC[C@H]3CN(C(=O)Nc3ccc(C(F)(F)F)cc3)C4)c2s1`, the Activity result in data set [5], in data set [7], in data set [12], in data set [15], in [18] and in [19] was “Non-Toxic” in each case. The Activity entry in [21] is recorded as “Non-Toxic”. In addition, the values for the viability at […] with MV4-11 [6], in the data set with HL-60 [9] and in the data set with MOLM-13 [13] were 85.7%, 84.5% and 90.4%, respectively. The viability at 10 µM with MV4-11 [8] is 65%; in the data set on MOLM-13 [14], 62.5%; in the data set on HL-60 [20] it was 73%. The viability at 5 µM with MOLM-13 [10] turned out to be 67.5%; in the data set with HL-60 [11] it was 78.2%; in the data set with MV4-11 [17], 78.2%. Moreover, the 50% inhibitory concentration (IC50) in [16] is 0.474 µM.
With `NC(=O)c1cc2ncnc(N3CCN(C(=O)Nc4ccccc4F)CC3)c2s1`, the IC50 in the data set with MOLM-13 [2] was 39.8 µM; in the data set with MV4-11 [3] it was over 50 µM; in the data set with HL-60 [4], over 50 µM.
With `Cc1ccc(NC(=O)N2C[C@H]3C[C@@H](C2)N3c2ncnc3cc(C(N)=O)sc23)cc1`, the IC50 in the data set with MOLM-13 [2], in the data set with MV4-11 [3] and in the data set with HL-60 [4] was over 50 µM throughout.
As for `NC(=O)c1cc2ncnc(N3[C@@H]4CC[C@H]3CN(C(=O)Nc3ccc5ccccc5c3)C4)c2s1`, the IC50 came out at 10.6 µM in the data set with MOLM-13 [2], 14.7 µM in the data set on MV4-11 [3] and 17.4 µM with HL-60 [4].
In the case of `NC(=O)c1cc2ncnc(N3CCN(C(=O)Nc4cc(Cl)cc(Cl)c4)CC3)c2s1`, the IC50 in the data set on MOLM-13 [2] was 3.47 µM; in the data set with MV4-11 [3] it was 7.28 µM; in the data set on HL-60 [4] it was 5.45 µM.
For the molecule `NC(=O)c1cc2ncnc(N3[C@@H]4C[C@H]3CN(C(=O)Nc3ccc(Cl)c(Cl)c3)C4)c2s1`, the half-maximal inhibitory concentration (IC50) was 25 µM in the data set on MOLM-13 [2], 19.9 µM in the data set on MV4-11 [3] and 27.1 µM in the data set on HL-60 [4].
The corresponding values for `NC(=O)c1cc2ncnc(N3CCN(C(=O)Nc4ccc(F)cc4F)CC3)c2s1` are 33.1 µM, over 50 µM and over 50 µM.
The like results for `NC(=O)c1cc2ncnc(N3CCN(C(=O)Nc4ccc(Cl)cc4)CC3)c2s1` were, in that order, 4.26 µM, 12.3 µM and 36.3 µM.
Regarding `Cc1ccc(NC(=O)N2C[C@H]3CC[C@@H](C2)N3c2ncnc3cc(C(N)=O)sc23)cc1`, the IC50 in the data set on MOLM-13 [2] is 4.73 µM; with MV4-11 [3] it was 18.1 µM; in the data set with HL-60 [4] it was 36.9 µM.
The like results for `Cc1ccc(NC(=O)N2CCN(c3ncnc4cc(C(N)=O)sc34)CC2)cc1` were, in that order, 6.27 µM, 25.7 µM and 36.3 µM.
`NC(=O)c1cc2ncnc(N3[C@@H]4C[C@H]3CN(C(=O)Nc3ccccc3Cl)C4)c2s1`: the half-maximal inhibitory concentration (IC50) in the data set with MOLM-13 [2], with MV4-11 [3] and with HL-60 [4] was over 50 µM throughout.
On to `NC(=O)c1cc2ncnc(N3[C@@H]4C[C@H]3CN(C(=O)Nc3cc(C(F)(F)F)cc(C(F)(F)F)c3)C4)c2s1`, for which the concentration for half-maximal inhibition (IC50) in the data set on MOLM-13 [2] came to 41.5 µM; with MV4-11 [3], 26.3 µM; with HL-60 [4] it was 31.5 µM.
The like results for `NC(=O)c1cc2ncnc(N3[C@@H]4C[C@H]3CN(C(=O)Nc3ccc(C(F)(F)F)cc3)C4)c2s1` were, in that order, 38.3 µM, 26.3 µM and 36.6 µM.
The like results for `NC(=O)c1cc2ncnc(N3[C@@H]4C[C@H]3CN(C(=O)Nc3ccc(F)cc3F)C4)c2s1` were, in that order, over 50 µM, over 50 µM and over 50 µM.
Molecule `CCNC(=S)c1ccc(C(=O)NCCC2CCN(c3ncnc4cc(C(N)=O)sc34)CC2)s1` gave a 50% inhibitory concentration (IC50) in data set [22] of 0.0027 µM.
On to `NC(=O)c1cc2ncnc(N3CCN(C(=O)NC4CCCCC4)CC3)c2s1`, for which the IC50 with MOLM-13 [2] was 17.7 µM; in the data set with MV4-11 [3], 33.3 µM; with HL-60 [4], 37.1 µM.
The like results for `NC(=O)c1cc2ncnc(N3[C@@H]4C[C@H]3CN(C(=O)Nc3cccc(Cl)c3)C4)c2s1` were, in that order, 36.1 µM, 34.1 µM and over 50 µM.
`NC(=O)c1cc2ncnc(N3[C@@H]4CC[C@H]3CN(C(=O)Nc3ccc(Cl)c(Cl)c3)C4)c2s1`: the IC50 in the data set with MOLM-13 [2] was determined as 2.35 µM; in [23], 0.125 µM; in the data set on MV4-11 [3], 5.09 µM; in the data set with HL-60 [4], 1.15 µM.
